Results published in EP0358766A1, “METHOD OF STERILIZING PLANT ANTHERS” (VSESOJUZNY NAUCHNO-ISSLEDOVATELSKY INST. SELSKOKHOZYAISTV. …, priority 1988, dated 1989).

Columns and labels:
[1] = system: Tritikale Ampfindiploid 206; experiment: Field test of gametocidal activity, triticale Amphidiploid 206; type: in vivo; details: period V, 1% aqueous emulsion, 6 kg/ha in 600 l water; for Prozentsatz des Ansetzens von Samen bei freier Bestäubung: control = 100
Excerpt: (§1) Die gametozide Aktivität der erfindungsgemäßen Sterilisationsmittel war in Feldversuchen in verschiedenen bodenklimatischen Zonen mit Teilstücken von 10 m^2 Größe in dreibis viermaliger Wiederholung festgestellt. Jedes Sterilisationsmittel wurde mindenstens 5 Jahre lang geprüft.
(§2) Die Entwicklung der Perioden der Organogenese wird zytologisch überwacht. Die Behandlung von Pflanzen mit dem Sterilisationsmittel erfolgt am Anfang der fünften Periode der Organogenese nach Kupermann.
(§3) Mit dem Ährenschieben verwirklicht man die Isolierung von Hauptähren und anderen Stockwerken in Pergametbeuteln. Bei Weizen und Tritikale werden Einzelisolatoren benutzt. Bei Roggen schließt man je 1 Ähre von […] verschiedenen nebeneinander befindlichen Pflanzen unter einen gemeinsamen Isolator ein. Bei Hirse wird jede Rispe getrennt isoliert. Der Sterilitätsprozentsatz (X) für Weizen, Roggen, Tritikale und Hirse wird nach der Formel [formula] ermittelt.
(§4) Die Kornzahl in nicht isolierten Ähren von Kontrollpflanzen wird bedingt für 100 % Ansetzen bei freier Bestäubung angenommen.
(§5) Um zuverlässige Angaben zu erhalten, verwendet man 20 bis 25 Isolatoren je Wiederholung für Weizen und Tritikale, 10 bis 15 Isolatoren jeder Wiederholung für Roggen und Hirse.
Pflanzen von Tritikale Ampfindiploid 206 werden in der V.Periode der Organogenese (nach Kupermann) mit einer 1%igen wäßrigen Emulsion von 1,1,3-Tribrompropan bzw. 1,2-Dibromheptan behandelt. Die Emulsion enthält 0,5 Masse% C12-C14--Kalziumalkylbenzolsulfonat und 0,01 Masse% Dimethylformamid. Der Verbrauch an Präparat beträgt 6 kg/ha bei 600 1 Wasserdurchsatz. Die Prüfergebnisse sind in der Tabelle 6 angegeben.
Die gleichen Ergebnisse sind bei der Behandlung von Tritikale Amphidiploid 206 in der VI. Periode der Organogenese erhalten.

[2] = system: Sonnenblume Sorte Peredovik; experiment: Field test of pollen sterilisation, sunflower Peredovik; type: in vivo
Excerpt: as §1, §2
(§6) Zur Kontrolle der chemischen Sterilisation des Sonnenblumenpollens werden für jede Verbindung 45 behandelte Pflanzen je Wiederholung benutzt, wobei 15 Pflanzen zwecks Selbstbestäubung des Blütenkörbchens isoliert werden, 15 Pflanzen mit einem Pollengemisch, gesammelt von 20 bis 25 behandelten isolierten Körbchen, bestäubt werden, und 15 Pflanzen für freie Bestäubung gelassen werden, damit das Ansetzen von Achänen mit dem Pollen der Vaterform kontrolliert worden kann.
(§7) Man beurteilt die Pollensterilität von Pflanzen der Sonnenblume nach der Pollenfertilität und -keimfähigkeit, nach den morphologischen Besonderheiten von Spermien und nach der Fähigkeit von Achänen […] bei der Bestäubung der behandelten isolierten Pflanzen mit dem Pollen der unbehandelten väterlichen Form. Die Lebensfähigkeit der Eizelle wird nach der Samenbildung bei behandelten Pflanzen bei freier Bestäubung der väterlichen Form bestimmt.
Pflanzen der Sonnenblume Sorte Peredovik werden in der V. Periode der Organogenese (nach Kupermann) mit einer 0,2%igen wäßrigen Emulsion von 1,1,3-Tribrompropan, 1,2--Dibrompropan behandelt. Die Emulsion enthält 0,5 Masse% C12-C14-Kalziumalkylbenzolsulfonat und 0,01 Masse% Dimethylsulfoxid als Adjuvans. Der Verbrauch an Präparat beträgt 1,2 kg/ha bei 600 1 Wasserdurchsatz. Die Prüfergebnisse sind in der Tabelle 16 angegeben. Die gleichen Ergebnisse sind bei der Behandlung der Sonnenblume Sorte Peredovik in der VI. Periode der Organogenese erhalten.
Man verfährt analog den Beispielen 85 und 86. Als Sterilisationsmittel dient eine 0,1%ige wäßrige Emulsion von 1,2-Dibrom-3-chlorpropan. Der Verbrauch an Präparat beträgt […]. Die Prüfergebnisse sind in der Tabelle 16 angegeben.

Sonnenblume Linie BK 119 = experiment: Field test of pollen sterilisation, sunflower line BK 119; type: in vivo
Excerpt: as §1, §2, §6, §7
Pflanzen der Sonnenblume Linie BK 119 werden mit einer 0,2%igen wäßrigen Emulsion von 1,1,3-Tribrompropan bzw. 1,2-Dibrompropan behandelt. Die Emulsion enthält 0,5 Masse% C12-C14 Natriumalkylbenzolsulfonat und 0,01 Masse% Dimethylformamid als Adjuvans. Der Verbrauch an Präparat beträgt 1,2 kg/ha bei 600 1 Wasserdurchsatz. Die Prüfergebnisse sind in der Tabelle 17 angegeben. Die gleichen Ergebnisse sind bei der Behandlung von Sonnenblume Linie BK in der VI. Periode der Organogenese erhalten.
Man verführt analog den Beispielen 88-89. Als Sterilisationsmittel dient eine 0,1%ige wäßrige Emulsion von 1,2--Dibrom-3-chlorpropan. Der Verbrauch an Präparat beträgt 0,6 kg/ha bei 600 1 Wasserdurchsatz. Die Prüfergebnisse sind in der Tabelle 17 angegeben.

[3] = Toxicity in animal test (LD50); parameters: species or system Mäuse; details: in vivo, mice stated only for 1,1,3-Tribrompropan, species not given for the others
Excerpt: Alle erfindungsgemäßen Polybromalkane, die als Sterilisationsmittel zur Verwendung kommen, waren auf die Toxizität im Tierversuch geprüft. Die Prüfergebnisse haben ergeben, daß die angegebenen Verbindungen von schwacher oder mittlerer Toxizität sind.

[4] = system: Sommerweizens Sorte Rodina; experiment: Field test of gametocidal activity, spring wheat Rodina; type: in vivo, Weizen; details: period V, 1% aqueous emulsion, 6 kg/ha in 600 l water; for Prozentsatz des Ansetzens von freier Bestäubung: control = 100
Excerpt: as §1, §2, §3, §4, §5
Pflanzen des Sommerweizens Sorte Rodina werden in der V.Periode der Organogenese (nach Kupermann) mit einer l%igen wäßrigen Emulsion von 1,3-Dibrompropan, 1,1,1,3-Tetrabromheptan, 1,1,3-Tribromheptan bzw. 1,2-Dibromheptan behandelt. Die Emulsion enthalt 0,5 Masse% C12-C14 Kalziumalk^ylbenzol- sulfonat und 0,01 Masse% Dodezylsulfat. Der Verbrauch an Präparat beträgt 6 Kg/ha bei 600 1 Wasserdurchsatz. Als Kontrolle dienen Pflanzen, behandelt mit dem Verdünner ohne Sterilisationsmittel.
Die Prüfergebnisse sind in der Tabelle 3 angegeben. Die gleichen Ergebnisse sind bei der Behandlung des Sommerweizens Sorte Rodina in der VI. Periode der Organogenese erhalten.

[5] = system: Sommerweizens Sorte Botanicheskaya 4; experiment: Field test of gametocidal activity, spring wheat Botanicheskaya 4; type: in vivo, Weizen; details: period V, 1% aqueous emulsion, 6 kg/ha in 600 l water; for Prozentsatz des Ansetzens von Samen bei freier Bestäubung: control = 100
Excerpt: as §1, §2, §3, §4, §5
Pflanzen des Sommerweizens Sorte Botanicheskaya 4 werden in der V. Periode der Organogenese (nach Kupermann) mit einer 1%igen wäßrigen Emulsion von 1,3-Dibrompropan, 1,1,1,3-Tetrabromheptan, 1,1,2-Tribromheptan bzw. 1,2--Dibromheptan behandelt. Die Emulsion enthält 0,5 Masse% C12-C14-Kalziumalkylbenzolsulfonat und 0,01 Masse% Dimethylsulfoxid als Adjuvans. Der Verbrauch an Präparat beträgt 6 kg/ha bei 600 1 Wasserdurchsatz. Als Kontrolle dienen Pflanzen, behandelt mit dem Verdünner ohne Sterilisationsmittel.
Die Prüfergebnisse sind in der Tabelle 4 angegeben. Die gleichen Ergebnisse sind bei der Behandlung des Sommerweizens Sorte Botanicheskaya 4 in der VI. Periode der Organogenese erhalten.

[6] = period V, 0.2% aqueous emulsion, 1.2 kg/ha in 600 l water
[7] = 0.2% aqueous emulsion, 1.2 kg/ha in 600 l water
[8] = 0.1% aqueous emulsion, 1.0 kg/ha
[9] = 0.1% aqueous emulsion, 0.6 kg/ha in 600 l water

In the case of `BrCCC(Br)Br` [Beispiel 1, 1,1,3-Tribrompropan], the “Kornzahl der Ähre bei freier Bestäubung” value [1] is reported as 30,1, the “Kornzahl der Ähre im Isolator” value [1] is reported as 0,0 and the “Prozentsatz der Sterilität” value [1] is reported as 100,0%. The “Prozentsatz des Ansetzens von Samen bei freier Bestäubung” value [1] was 82,2%, the “Ansetzen bei freier Bestäubung in %” value [2, 6] was 78,7% and the “Ansetzen im Isolator bei Pollengemischbestäubung in %” value [2, 6] was 0,0%. The Pollenleistung in % [2, 6] was 30,0%, the Pollensterilität in % [2, 6] was 100,0% and the “Ansetzen bei freier Bestäubung in %” value (Sonnenblume Linie BK 119; [7]) was 80,4%. For the same compound, the “Ansetzen im Isolator bei Pollengemischbestäubung in %” value (Sonnenblume Linie BK 119; [7]) was 0,0%, the Pollenstesterilität in % (Sonnenblume Linie BK 119; [7]) was 100,0% and the LD50 [3] was 540 mg/kg.
With `CC(Br)CBr` (stereo not drawn) [Beispiel 5, 1,2-Dibrompropan] the “Ansetzen bei freier Bestäubung in %” value [2, 6] was 84,5%, the “Ansetzen im Isolator bei Pollengemischbestäubung in %” value [2, 6] was 0,0% and the Pollenleistung in % [2, 6] was 13,1%. For the same compound, the Pollensterilität in % [2, 6] was 100,0%, the “Ansetzen bei freier Bestäubung in %” value (Sonnenblume Linie BK 119; [7]) was 88,2% and the “Ansetzen im Isolator bei Pollengemischbestäubung in %” value (Sonnenblume Linie BK 119; [7]) was 0,0%. For the same compound, the Pollenstesterilität in % (Sonnenblume Linie BK 119; [7]) was 100,0%.
For `ClCC(Br)CBr` (stereo not drawn) [Beispiel 7, 1,2-Dibrom-3-chlorpropan], the “Ansetzen bei freier Bestäubung in %” value [2, 8] was 81,4%, the “Ansetzen im Isolator bei Pollengemischbestäubung in %” value [2, 8] was 0,0% and the Pollenleistung in % [2, 8] was 0,0%. For the same compound, the Pollensterilität in % [2, 8] was 100,0%, the “Ansetzen bei freier Bestäubung in %” value (Sonnenblume Linie BK 119; [9]) was 82,0% and the “Ansetzen im Isolator bei Pollengemischbestäubung in %” value (Sonnenblume Linie BK 119; [9]) was 0,0%. For the same compound, the Pollenstesterilität in % (Sonnenblume Linie BK 119; [9]) was 100,0% and the LD50 [3] was ~170 mg/kg.
For `CCCCC(Br)CC(Br)(Br)Br` (stereo not drawn) [Beispiel 9, 1,1,1,3-Tetrabromheptan], the “Kornzahl der Ähre bei freier Bestäubung” value [4] was 35,4, the “Kornzahl der Ähre im Isolator” value [4] was 0,0 and the “Prozentsatz der Sterilität” value [4] was 100,0%. The “Prozentsatz des Ansetzens von freier Bestäubung” value [4] was 87,6%, the “Kornzahl der Ähre bei freier Bestäubung” value [5] was 28,1 and the “Kornzahl der Ähre im Isolator” value [5] was 0,0. The “Prozentsatz der Sterilität” value [5] was 100,0% and the “Prozentsatz des Ansetzens von Samen bei freier Bestäubung” value [5] was 90,9%.
In the case of `CCCCC(Br)CC(Br)Br` (stereo not drawn) [Beispiel 10, 1,1,3-Tribromheptan], the “Kornzahl der Ähre bei freier Bestäubung” value [4] is reported as 33,8, the “Kornzahl der Ähre im Isolator” value [4] is reported as 0,0 and the “Prozentsatz der Sterilität” value [4] is reported as 100,0%. The “Prozentsatz des Ansetzens von freier Bestäubung” value [4] was 83,7%.
With `CCCCCC(Br)CBr` (stereo not drawn) [Beispiel 11, 1,2-Dibromheptan] the “Kornzahl der Ähre bei freier Bestäubung” value [4] was 32,7, the “Kornzahl der Ähre im Isolator” value [4] was 0,0 and the “Prozentsatz der Sterilität” value [4] was 100,0%. For the same compound, the “Prozentsatz des Ansetzens von freier Bestäubung” value [4] was 80,9%, the “Kornzahl der Ähre bei freier Bestäubung” value [5] was 23,6 and the “Kornzahl der Ähre im Isolator” value [5] was 0,0. For the same compound, the “Prozentsatz der Sterilität” value [5] was 100,0%, the “Prozentsatz des Ansetzens von Samen bei freier Bestäubung” value [5] was 76,4% and the “Kornzahl der Ähre bei freier Bestäubung” value [1] was 29,2. For the same compound, the “Kornzahl der Ähre im Isolator” value [1] was 0,0, the “Prozentsatz der Sterilität” value [1] was 100,0% and the “Prozentsatz des Ansetzens von Samen bei freier Bestäubung” value [1] was 79,8%.
